# In EP4028131B1, “HETEROAROMATIC COMPOUNDS USEFUL IN THERAPY” (CUROVIR AB, priority 2019, dated 2021):
# Experiments:
# [1] = cell viability assay using tetrazolium salt (MTS); conditions: human
# Procedure: The cell viability assay using tetrazolium salt (MTS) was also performed in HEp-2 cells.
# RSV strain A2 = experiment: standard plaque reduction assay for anti-RSV activity; conditions: for SI (CC50/IC50): calculated selectivity index, HEp-2 cells; for IC50: human respiratory syncytial virus, HEp-2, read-out: IC50 (RSV)
# RSV [2] = experiment: plaque titration assay of extracellular and cell-associated virus yield; assay type: cell-based; conditions: HEp-2 cells, MOI of 3, compound at 0.2 µM
# Procedure: The titer of extracellular (EX) and cell-associated (CA) RSV after incubation in Hep-2 cells at a multiplicity of infection (MOI) of 3 was determined by a plaque titration assay. Infected cells were harvested by scraping into fresh supernatant medium and then subjected to a rapid freeze-thaw cycle at -80 °C ethanol and a 37 °C water bath, respectively, to release infectious virus.
# RSV [3] = experiment: time-of-addition study of antiviral effect; assay type: cell-based; conditions: HEp-2 cells, compound at 0.2 µM added from -1h to 6h relative to infection
# Procedure: A time-of-addition study was performed using the compounds of Examples 25 and 61.
Compound,CC50 [1] [µM],SI (CC50/IC50) (RSV strain A2),IC50 (RSV strain A2) [µM],inhibition of cell-associated (CA) RSV yield (RSV [2]),inhibition of extracellular (EX) RSV yield (RSV [2]),time dependency of inhibition of RSV yield (RSV [3]),CC50 ([1]; HEp-2 cells) [µM]
"COc1ccc(-c2c(C)nc3c(NCc4ccncc4)cc(C)nn23)cc1OC [Example 1, 3-(3,4-dimethoxyphenyl)-2,6-dimethyl-N-(pyridin-4-ylmethyl)imidazo[1,2-b]pyridazin-8-amine]",60,2000,0.03,,,,
"Cc1cc(CNc2cc(C)nc3c(-c4ccc5c(c4)c(C)nn5C)c(C)nn23)ccn1 [Example 5, 3-(1,3-dimethyl-1H-indazol-5-yl)-2,5-dimethyl-N-[(2-methylpyridin-4-yl)methyl]pyrazolo[1,5-a]pyrimidin-7-amine]",18,450,0.04,,,,
"CCc1cc(CNc2cc(C)nc3c(-c4ccc5c(c4)c(C)nn5C)c(C)nn23)ccn1 [Example 6, 3-(1,3-dimethyl-1H-indazol-5-yl)-2,5-dimethyl-N-[(2-ethylpyridin-4-yl)methyl]pyrazolo[1,5-a]pyrimidin-7-amine]",160,3200,0.05,,,,
"COc1ccc(-c2c(C)nn3c(NCc4cccc(S(C)(=O)=O)c4)cc(C)nc23)cc1OC [Example 25, 3-(3,4-dimethoxyphenyl)-2,5-dimethyl-N-[(3-methylsulfonylphenyl)methyl]pyrazolo[1,5-a]pyrimidin-7-amine]",> 500,>25000,0.02,approximately 1 log10,approximately 1 log10,time-independent inhibition of RSV yield,
"COc1ccc(-c2c(C)nn3c(NCc4ccc(C)nc4)cc(C)nc23)cc1OC [Example 29, 3-(3,4-dimethoxyphenyl)-2,5-dimethyl-N-[(6-methyl-3-pyridyl)methyl]pyrazolo[1,5-a]pyrimidin-7-amine]",,150,0.04,,,,60
"COc1ccc(-c2c(C)nn3c(NCc4ccncc4)nc(C)nc23)cc1OC [Example 38, 8-(3,4-dimethoxyphenyl)-2,7-dimethyl-N-(4-pyridylmethyl)pyrazolo[1,5-a][1,3,5]triazin-4-amine]",60,667,0.09,,,,
"COc1ccc(-c2c(C)nn3c(NCc4ccc(S(N)(=O)=O)cc4)nc(C)nc23)cc1OC [Example 45, 4-[[[8-(3,4-dimethoxyphenyl)-2,7-dimethylpyrazolo[1,5-a][1,3,5]triazin-4-yl]amino]methyl]benzenesulfonamide]",> 500,>7143,0.07,,,,
"Cc1cc(NCc2ccncc2)c2nc(C)c(-c3ccc4c(c3)c(C)nn4C)n2n1 [Example 61, 3-(1,3-dimethyl-1H-indazol-5-yl)-2,6-dimethyl-N-(pyridin-4-ylmethyl)imidazo[1,2-b]pyridazin-8-amine]",18,514,0.034,approximately 1 log10,approximately 1 log10,time-independent inhibition of RSV yield,
"Cc1cc(NCc2ccncc2)n2nc(C)c(-c3ccc4c(c3)c(C)nn4C)c2n1 [Example 68, 3-(1,3-dimethyl-1H-indazol-5-yl)-2,5-dimethyl-N-(pyridin-4-ylmethyl)pyrazolo[1,5-a]pyrimidin-7-amine]",40,1000,0.04,,,,
"CC(=O)Nc1nc(C)c(-c2ccc(Cl)c(S(=O)(=O)NCCO)c2)s1 [PIK-93, reference compound]",,,0.4,,,,
"Cc1cc(CCCOc2c(C)cc(-c3noc(C(F)(F)F)n3)cc2C)on1 [Pleconaril, reference compound]",300,38,8,,,,
